Experimental data: patent US20240425491A1, “HETEROARYL COMPOUNDS USEFUL IN THE TREATMENT OF COGNITIVE DISORDERS” (University College Cardiff Consultants Limited, priority 2021, published 2024)

Experiments:
[1] = molecular target: T1, human recombinant GABAAR containing α5β3γ2 subunits (benzodiazepine site) (Homo sapiens, UniProt P18507+P31644); assay: In vitro radioligand binding assay (α5-GABAAR Ki); details: inhibition of [3H]Ro15-1788 binding, membranes of L(tk−) cells expressing human α5β3γ2; read-out: α5-GABAAR Ki
T1 construct: expressed in transfected cells; host or cells: mouse L(tk−) cells, dexamethasone-inducible vector pMSGneo
T1 sequence (P31644 32-462): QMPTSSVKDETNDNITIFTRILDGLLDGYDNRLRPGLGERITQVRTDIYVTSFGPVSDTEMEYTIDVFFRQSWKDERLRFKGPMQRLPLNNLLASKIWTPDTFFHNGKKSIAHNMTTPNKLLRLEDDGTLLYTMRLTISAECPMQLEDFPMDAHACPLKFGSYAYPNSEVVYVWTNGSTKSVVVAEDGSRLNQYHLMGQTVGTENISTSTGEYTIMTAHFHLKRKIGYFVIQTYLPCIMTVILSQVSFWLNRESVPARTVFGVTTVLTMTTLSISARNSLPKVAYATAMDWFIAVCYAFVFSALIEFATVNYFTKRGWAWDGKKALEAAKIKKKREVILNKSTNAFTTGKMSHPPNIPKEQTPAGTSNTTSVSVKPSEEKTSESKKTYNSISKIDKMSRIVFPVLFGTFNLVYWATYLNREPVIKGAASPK
T1 sequence (P28472 26-473 partner): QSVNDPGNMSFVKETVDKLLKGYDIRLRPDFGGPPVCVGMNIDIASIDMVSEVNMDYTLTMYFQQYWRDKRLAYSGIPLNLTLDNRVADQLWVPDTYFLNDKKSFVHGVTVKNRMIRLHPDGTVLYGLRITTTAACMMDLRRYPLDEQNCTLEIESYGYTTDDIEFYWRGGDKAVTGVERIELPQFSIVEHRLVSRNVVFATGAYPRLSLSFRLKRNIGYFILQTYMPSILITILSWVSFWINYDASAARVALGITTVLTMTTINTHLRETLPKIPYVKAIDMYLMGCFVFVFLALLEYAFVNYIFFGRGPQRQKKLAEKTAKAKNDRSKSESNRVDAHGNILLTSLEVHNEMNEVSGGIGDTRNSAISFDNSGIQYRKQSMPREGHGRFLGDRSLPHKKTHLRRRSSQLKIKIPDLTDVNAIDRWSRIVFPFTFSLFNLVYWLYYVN
T1 sequence (P18507 40-475): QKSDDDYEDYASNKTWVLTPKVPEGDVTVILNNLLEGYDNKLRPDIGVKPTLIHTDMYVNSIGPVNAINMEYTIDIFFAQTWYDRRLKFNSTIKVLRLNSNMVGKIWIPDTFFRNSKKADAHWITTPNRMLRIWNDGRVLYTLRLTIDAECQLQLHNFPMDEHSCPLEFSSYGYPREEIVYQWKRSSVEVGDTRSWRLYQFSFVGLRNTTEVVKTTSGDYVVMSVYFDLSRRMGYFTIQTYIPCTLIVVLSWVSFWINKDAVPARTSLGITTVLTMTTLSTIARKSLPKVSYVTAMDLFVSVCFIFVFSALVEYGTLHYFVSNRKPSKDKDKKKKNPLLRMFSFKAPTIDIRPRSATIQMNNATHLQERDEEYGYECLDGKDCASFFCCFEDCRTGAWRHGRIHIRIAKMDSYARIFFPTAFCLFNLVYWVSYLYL
In short: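 Membranes from mouse L(tk^−) cells stably expressing human α5β3γ2 GABAAR incubated 1 h at 4° C with 4 nM [^3H]Ro15-1788 and test compound; nonspecific binding with 1 μM TP003. Filter-bound radioactivity counted; Ki from IC50 by Cheng-Prusoff using measured Kd.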

[2] = molecular target: T2, human α5β3γ2L GABAA receptors in HEK293 cells (Homo sapiens, UniProt P18507+P31644); assay: In vitro electrophysiological recording assay (α5-GABAAR relative efficacy), SyncroPatch; assay type: cell-based; details: Conc 0.1 μM; GABA EC10-20
T2 construct: expressed in transfected cells
T2 sequence (P31644 32-462): as the sequence (P31644 32-462) above
T2 sequence (P28472 26-473 partner): as the sequence (P28472 26-473 partner) above
T2 sequence (P18507 40-475): as the sequence (P18507 40-475) above
In short: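 HEK293 cells stably expressing the receptor, automated whole-cell patch clamp at −80 mV, room temperature (20-22° C). Compound pre-incubated 1-2 min, then co-applied with GABA EC10-20; % change in peak current vs GABA alone (leak-subtracted). Tested generally at ≥100× Ki and normalised to DMCM efficacy as relative efficacy.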

[3] = tested on: mouse hippocampal brain slices (LTP suppressed by etomidate); assay: Electrophysiology in hippocampal slices - long term potentiation assay

Ki [1]: 2.9 nM
α5-GABAAR Relative Efficacy (to DMCM), SyncroPatch [2]: −1.11
Compound: COc1nc(-n2ccnc2)ccc1NC(=O)c1c(-c2ccccc2)noc1C [Example 1, N-(6-Imidazol-1-yl-2-methoxy-3-pyridyl)-5-methyl-3-phenyl-isoxazole-4-carboxamide]
magnitude of LTP (fEPSP slope as % of control fEPSPs prior to 4-TBS vs time) ([3]; 1 μM co-added with etomidate 3 μM, n=6, FIG. 2A): rescued
fEPSP slope at 50-60 min post-delivery of the 4-TBS ([3]; co-incubation with etomidate, one-way ANOVA, post-hoc Tukey, p<0.05, FIG. 2B): significantly increased fEPSP slope
